Active and inactive are the calls of the source. No cut-off for these calls is given here.
How the values were obtained:
[1] = molecular target: T1, Tyrosine-protein phosphatase non-receptor type 1 (Homo sapiens, UniProt P18031); assay: Inhibition of PTP1B (unknown origin)
T1 sequence (P18031 whole entry): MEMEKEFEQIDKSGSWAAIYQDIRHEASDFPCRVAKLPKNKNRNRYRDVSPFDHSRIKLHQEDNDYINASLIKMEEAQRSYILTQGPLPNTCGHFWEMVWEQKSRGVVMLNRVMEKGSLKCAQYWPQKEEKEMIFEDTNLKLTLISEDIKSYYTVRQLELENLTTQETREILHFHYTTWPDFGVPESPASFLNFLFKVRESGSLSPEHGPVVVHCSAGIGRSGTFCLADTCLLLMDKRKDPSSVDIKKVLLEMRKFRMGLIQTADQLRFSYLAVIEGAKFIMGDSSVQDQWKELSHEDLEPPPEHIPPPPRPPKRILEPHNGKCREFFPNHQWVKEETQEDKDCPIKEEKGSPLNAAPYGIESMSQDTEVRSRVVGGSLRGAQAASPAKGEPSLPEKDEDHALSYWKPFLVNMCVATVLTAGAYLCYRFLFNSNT

[2] = molecular target: T2, Tyrosine-protein phosphatase non-receptor type 1 (Homo sapiens) (UniProt P18031); settings: 23.1 uM
T2 sequence (whole entry): T1 sequence (P18031 whole entry)
Description: Inhibition of PTP1B (unknown origin) at 23.1 uM

[3] = molecular target: T2, Tyrosine-protein phosphatase non-receptor type 1 (Homo sapiens); assay: Inhibition of PTP1B (unknown origin) at 20.7 uM

Compound | IC50 [1] [µM] | also measured
C[C@@H]1Cc2c3c(cc(O)c2C(=O)O1)O[C@@]1(C)[C@@H](O)C[C@H]2C(C)(C)C(=O)CC[C@]2(C)[C@@H]1C3 | 14.9 | 
C[C@@H]1Cc2c3c(cc(O)c2C(=O)O1)O[C@@]1(C)CC[C@H]2C(C)(C)C(=O)C=C[C@]2(C)[C@@H]1C3 | 8.4 | 
C[C@H]1OC(=O)c2c(O)cc3c(c2[C@H]1O)C[C@H]1[C@@]2(C)C=CC(=O)C(C)(C)[C@@H]2C[C@H](O)[C@]1(C)O3 | 8.5 | 
C/C(=C\Cc1c(O)cc(O)c2c1C[C@@H](C)OC2=O)CC/C=C(\C)CCC(O)C(C)(C)O (stereo not given in full) |  | inhibition [2]: 40%
CC(=O)O[C@@H]1c2c3c(cc(O)c2C(=O)O[C@@H]1C)O[C@@]1(C)[C@@H](O)C[C@H]2C(C)(C)C(=O)C=C[C@]2(C)[C@@H]1C3 |  | inhibition [3]: inactive

From ChEMBL document CHEMBL3600359, “Verruculides A and B, two new protein tyrosine phosphatase 1B inhibitors from an Indonesian ascidian-derived Penicillium verruculosum” (Bioorg Med Chem Lett, 2015)
